Reference: patent US10640463B2, “Chlorhexidine crystal forms and uses thereof in medicine” (Queen Mary University of London, priority 2016, dated 2020)

Assays:
[1] = Chlorhexidine release from uncoated and polyelectrolyte-encapsulated particles (UV absorption); assay type: physicochemical; conditions: H2O, water stored and agitated
Description: The content of chlorhexidine in the compound, made from 0.33M CaCl2 and 15 mg/ml chlorhexidine diacetate, was determined by UV-Vis absorption (Lambda 35, Perkin Elmer, USA). […] The chlorohexidine proportion in the spheres (0.33M CaCl2 group) was calculated to be 90%-99.9% when they were co-precipitated from 15 mg/ml chlorhexidine diacetate solution. […] However, after encapsulation polyelectrolyte flakes could be seen on the surface, with the original structure covered (FIG. 11, panel (b)). In order to measure chlorhexidine release over 400 mins, samples were water stored and agitated (Vortex-Genie 2, Germany) for the whole time period. […] There was a linear relationship between chlorhexidine release and time (r2=0.99) FIG. 11, panel (d)).

[2] = Chlorhexidine release from HEMA-UDMA resin discs, with or without ultrasound; assay type: physicochemical
Description: HEMA-UDMA resin was prepared by mixing 64% urethane dimethacrylate (UDMA) (Esschem UK, Lot: 591-22) and 36% hydroxyethyl methacrylate (HEMA) (Aldrich, 128635, Lot: STBC7495V), 0.08% of N,N-dimethyl-P-toluidine (Acros Organics, Lot: A0207283001) and 0.05% dimethylamino ethyl methacrylate (Aldrich, 234907, Lot: BCBF8391V) were added. The mixture was then stirred for 15 min (800 rpm, VWR Stirrer, USA). Finally, camphorquinone (Aldrich, 12, 489-3, Lot: 2338141) was added at the proportion of 0.1%. The mixture was stirred for another 15 min (VWR Stirrer, USA), and then the viscous liquid resin was prepared. Freeze dried chlorhexidine chloride compounds produced in Example 2 (precipitated with 0.33 M CaCl2) were weighed and incorporated within the resin at a loading level of 5% by weight. To explore the effect of different morphology on the release kinetics, chlorhexidine compounds with spherical, needle and flake morphology (from Example 1, FIG. 1, panels (b) and (c)) were incorporated into the resin. Incorporation of the chlorhexidine compounds within the resin was carried out by rotating the mixture contained in a 1 ml tube for 15 s in a Rotomix (120V/60 Hz, 2850 rotations/min) (ESPE RotoMix, USA). Chlorhexidine diacetate was also incorporated in the prepared resin in the same way, with loading rates of 5%, 10% and 15% (weight %). The filled resin was then placed into a Teflon mould (10 mm in diameter ×2 mm thick) and cured through a Mylar film with a curing light (Bluedent LED pen, Bulgaria) (430-490 nm, 600 mW/sq·cm) for 30 s. Then the discs were next weighed on a microbalance (Salter Ander-180A weighing scale, UK), and chlorhexidine content in each disc was calculated.
(§1) For the release study, all sample resin discs (HEMA-UDMA) containing chlorhexidine chloride compounds or chlorhexidine diacetate powder prepared in Example 5 were kept in cuvettes containing 3 ml deionized water, and kept at room temperature. And at each time point, solutions were collected for UV absorption tests (Lambda 35, Perkin Elmer, USA) and replaced with fresh deionized water.
For the chlorhexidine chloride compound doped discs (Example 5) chlorhexidine content was fixed at 5%, and ultrasound was exerted. Four groups (five discs in each group) were repetitively treated with ultrasound for 0 s, 10 s, 20 s, 30 s, accordingly, by contacting the ultrasound probe (Piezon Master 400, Swiss, 60 Hz, 45VA) on the disc surface at time points of 1 h, 3 h, 5 h, 15 h, 25 h, 40 h, 65 h, 95 h, 140 h, 205 h. After that, no ultrasound was carried out for all the groups, but release was carried on until the 650 hour time point. The UDMA-HEMA discs containing needle and flake chlorhexidine compounds and chlorhexidine diacetate (FIG. 1, panels (b) and (c), and FIG. 3, panel (g)) were also tested (UV absorption tests) at the same time points (same sample numbers) but without ultrasound treatment. For the chlorhexidine diacetate powder doped discs chlorhexidine content of 5%, 10% and 15% were also analysed, and no ultrasound treatment was carried out.

[3] = Chlorhexidine release from PMMA resin; assay type: physicochemical; conditions: 5% loading, after 650 hours
Description: as §1
The PMMA resin system was also tested for the release kinetics of spherical chlorhexidine chloride compounds. Specifically, PMMA resin was prepared by mixing the Simplex Rapid Liquid and powder (Kemdent, Lot: 920 758) at a weight ratio of 1:2. The self-cure process took about 15 min, and after which the mixture was filled into a Teflon mould in the same way and pressed (Mestra, Mod.030350). To incorporate the spherical chlorhexidine chloride compounds, they were previously mixed with the Simplex Rapid powder (5% weight of mixture), and the liquid was added.

L929 cells [4] = experiment: Cell proliferation assay (total DNA content, Hoechst 33258); assay type: cell-based, mouse
Description: To determine any increase in cell numbers over time following chlorhexidine spheres treatment, a cell proliferation assay was performed by analysing the total DNA content using a fluorimetric plate reader based assay (Hoechst dye, R. Rago analytical biochemistry, 1990, 191: 31-34). Briefly, the 96 well plates were collected at 24 and 48 hour time points, washed twice with PBS and stored at −20° C. The cells were thawed to room temperature and 100 μl distilled water was added to each well, incubated for another hour and refrozen to suspend DNA. After 24 hrs, cells were thawed again and 100 μl of the fluorochrome Hoechst 33258 (Sigma-Aldrich, UK) at the concentration 20 μg/ml in THE buffer (2M NaCl) was added to each well. The intensity of the fluorescence was then read at A 350 nm excitation and A 460 nm emissions.

[5] = Thermo-gravimetric analysis (TGA); assay type: physicochemical; conditions: TGA at 10° C./min in nitrogen, 50-800° C.
Description: The chlorhexidine chloride spheres (0.33M CaCl2 group) were analysed by Thermo-gravimetric analysis (TGA Q50, USA). Chlorhexidine diacetate crystals and CaCl2 powder (Sigma-Aldrich, C8106, Lot: SLBF7416V) were tested as comparisons. TGA was carried out at 10° C./min in a nitrogen atmosphere, over a temperature range of 50-800° C. The chlorhexidine proportion was further confirmed by the TGA result. […] The decomposition temperature of the chlorhexidine chloride spheres (210° C.) was higher than the chlorhexidine diacetate crystals (120° C.).

L929 cells [6] = experiment: Cytotoxicity assay (MTT); conditions: for relative cellular viability: 0.001% chlorhexidine spheres
Description: 0.5% chlorhexidine spheres stock solution was used to prepare fresh successive dilutions in sterile deionised water to obtain the final concentrations ranging from 0.0005 to 0.25%. For controls (untreated cultures), sterile deionised water was used. 25 μl of each treatment were added into respective wells to achieve final concentrations ranging from 0.00005-0.025%.
L929 cells, a mouse fibroblast-like cell line (ECACC 85011425) were cultured in Dulbecco's Modified Eagle's Medium (DMEM; Lonza, UK) supplemented with 10% fetal bovine serum (FBS) with 100 IU/mL penicillin, 100 μg/mL streptomycin and 2 mmol/L glutamine (all from Invitrogen, UK) in an humidified incubator with 10% CO2 and 95% air at 37° C.
Cell metabolic activity was evaluated by measuring the mitochondrial activity using a method commonly known as a methyl-tetrazolium (MTT) assay. MTT assay was carried out according to the protocols outlined in ISO 1 0993-5:2009 (Biological evaluation of medical devices—Part 5: Tests for in vitro cytotoxicity).
Trypsinisation was performed by routine methods and cell suspension was counted using a haemocytometer and seeded in 96-well microtiter plates at a concentration of 10,000 cells per well. The cells were then left overnight in the incubator to adhere to the wells. Following overnight incubation, medium was removed and cells were washed twice with PBS. The cells were then treated with different concentrations of chlorhexidine spheres (0.00005-0.025%) for 24 and 48 hours. Following treatment, culture medium containing chlorhexidine spheres was removed and 50 μL of 5 mg/mL tetrazolium salt MTT (Sigma-Aldrich, Gillingham, UK) was added to each well and incubated in 37 C for 4 h. Formazan crystals generated by mitochondrial enzyme activity were dissolved by 100 μl of isopropanol and the intensity of purple coloured reaction product quantified by measuring the absorbance spectra at 570 nm. A cell viability level below 70% of control (no treatment) was regarded as the toxic concentration according to the ISO protocol.

time to dissolution [1]: ≤ 1 h
chlorhexidine release ([2]; 5% loading, control group without ultrasound (0 s), by 205 hours): 1.2%
chlorhexidine released by weight ([2]; 5% loading, deionized water, room temperature, no ultrasound, within 65 hours): 0.76%
chlorhexidine release ([2]; 5% loading, ultrasound 10 s at each time point, by 205 hours): 4.6%
chlorhexidine release ([2]; 5% loading, ultrasound 20 s at each time point, by 205 hours): 10.1%
chlorhexidine release ([2]; 5% loading, ultrasound 30 s at each time point, by 205 hours): 14.9%
chlorhexidine release ([2]; no ultrasound, after 650 hours): ~2.7%
chlorhexidine released [3]: 8%
decomposition temperature [5]: 210 °C
SMILES: Cl.Cl.N=C(NCCCCCCNC(=N)NC(=N)Nc1ccc(Cl)cc1)NC(=N)Nc1ccc(Cl)cc1 [chlorhexidine spheres]
effect on L929 cell proliferation (in words) (L929 cells [4]; 0.00005% to 0.00025%, 24 and 48 hour treatment): induces proliferation
effect on L929 cell proliferation (in words) (L929 cells [4]; 0.0005%, 24 hour treatment): no proliferation
concentrations profoundly reducing cell proliferation (L929 cells [4]; L929 cells): > 0.0005%
concentrations significantly inhibiting proliferation (L929 cells [4]; L929 cells): ≥ 0.001%
cellular viability (L929 cells [6]; 0.00005% to 0.00025%, both 24 and 48 hours): approximately 90%
cellular viability (L929 cells [6]; 0.0005%, 24 hours): > 80%
cellular viability (L929 cells [6]; 0.0005%, 48 hours): below 70%
relative cellular viability (L929 cells [6]; 24 hours): approximately 50%
relative cellular viability (L929 cells [6]; 48 hours): 20%
concentrations demonstrating cytotoxicity (L929 cells [6]; L929 cells, viability below 70% of control regarded as toxic): above 0.0005%
